Data as given in patent US20130023504A1, “Modulation of Prostaglandin/Cyclooxygenase Metabolic Pathways” (HUNTER-FLEMING LIMITED, priority 2006, published 2013).
Values joined by “and” are separate entries in the source; they are usually repeats but may differ in a detail not shown here. Identical values can stand only once.

System: rat sensory neurones
Experiment: Cisplatin-induced neuronal cell death, number of cell bodies per field in dorsal root ganglia sensory neurones (anti MAP-2)
Type: cell-based
Conditions: for % Control without cisplatin (cell bodies) / number of cell bodies per field, Average: cisplatin 3 μg/ml
Method: Primary cultures of dissociated dorsal root ganglia sensory neurones were incubated with 3 μg/ml cisplatin, with and without 7β-OH EPIA for 48 hours and 72 hours and the following parameters were evaluated:
neurone cell bodies stained with an anti MAP 2 antibody (microtubule associated protein 2)
Rat sensory neurones were prepared according to the method described by Hall et al 1997 [Hall et al. (J. Neurosci. 1997 Apr. 15; 17(8); 2775-84]. Briefly, a female rat (15 days gestation) was killed by cervical dislocation (Rats Wistar; Janvier, Le Genest-St-lsle, France) and the foetuses removed from the uterus. Their spinal cords with the dorsal root ganglia (DRG) were removed and placed in ice-cold medium of Leibovitz (L15, Fisher 11415-049) containing Penicillin 50 UI/ml-Streptomycin 50 μg/ml (PS, 1%) and bovine serum albuminutes (BSA 1%, Sigma A6003). The DRG were recovered and dissociated by trypsinisation for 20 minutes at 37° C. (trypsin EDTA 10×, 10%, Fisher 15400054) diluted in PBS without calcium and magnesium (Fisher 2007-03). The reaction was stopped by addition of Dulbecco modified Eagle medium (DMEM, Fisher 21969-035) containing DNase I grade II (0.1 mg/ml Roche diagnostic 104159) and foetal bovine serum (FBS 10%, Fisher 10270-098). The cell suspension was triturated with a 10 ml pipette and centrifuged at 350×g for 10 minutes at room temperature. The pellet of dissociated cells was then resuspended in defined culture medium.
Viable cells were counted in a Neubauer cytometer using the trypan blue exclusion test (Sigma) and seeded at a density of 30 000 cells/well in 96 well-plates (Nunc). Wells were pre-coated with poly-L-lysine (10 μg/ml, Sigma P2636) in ultra pure sterile water (Merck Eurolab 60759.01).
Cells were allowed to adhere for 2 h and maintained in a humidified incubator at 37° C. in 5% CO2/95% air atmosphere.
After 5 days of culture, the culture medium was changed into a defined culture medium following the different conditions described below:
Test compound 7β-OH EPIA (1 nM, 10 nM and 100 nM)+cisplatin (3 μg/ml)
Reference compound NGF (10 ng/ml)+cisplatin (3 μg/ml)
Six wells per condition were carried out to assess neuronal survival. After 48 hours and 72 hours of incubation, the neuronal cells were fixed for 5 minutes in an ethanol/acetic acid solution (95%/5%) at −20° C. and rinsed 3 times in PBS.
Cell bodies of sensory neurones were labelled by monoclonal anti MAP-2 antibody (Sigma M4403) and the neurite of sensory neurones were labelled by monoclonal β-Tubulin antibody (Sigma T8660). These antibodies were diluted at 1:400 in incubation solution (PBS with 5% of FCS and 0.1% of saponin, Sigma S-7900). These antibodies specifically label neurone cell bodies and neuritis, respectively.
After 2 hours of incubation, the cells were washed in PBS and incubated with Alexa Fluor 488 goat anti mouse IgG (Molecular Probes A11001) diluted at 1:300 in incubation solution to reveal the MAP-2 and the β-Tubulin antibodies. Cell nuclei were stained with a fluorescent marker (Hoechst staining solution, SIGMA H6024, 1 μg/ml in incubation solution during 1 hour).
For each condition, 2 pictures per well (12 pictures per condition) were taken using In Cell Analyzer 1000 (Amersham Biosciences) controlled by the computer software In Cell Analyzer 1000 3.2. For the MAP-2 labelling, the magnification was ×10, for the β-Tubulin labelling, the magnification was ×20. For each labelling, all the images were taken in the same conditions.
Analysis of the number of cell bodies labelled with anti-MAP-2 antibodies, and total length of neurites labelled with anti β-Tubulin antibodies, were carried out using In Cell Analyzer 1000 3.2.Workstation software. The results were expressed in percentage compared to the vehicle. The comparisons of each group were carried out using the unpaired T test.

CC12CCC3C(C1CCC2=O)[C@@H](O)C[C@H]1C[C@@H](O)CCC31C (stereo partly drawn) [Compound 7β-OH-EPIA, 7β-hydroxy-EPIAndrosterone] was tested, and the “reduction of cisplatin-induced cell death” value (shortened to “reduction”) (1 nM, 48 hours) was 53.1%, the “reduction” value (1 nM, 72 hours) was 93% and the “% Control without cisplatin (cell bodies)” value (“% Control without cisplatin” below) (1 nM, 48 hours) was 85%. For the same compound, the “number of cell bodies per field, Average” value (1 nM, 48 hours) was 51 and 51.42, the “% Control without cisplatin” value (1 nM, 72 hours) was 98% and the “number of cell bodies per field, Average” value (1 nM, 72 hours) was 52 and 52.42. The “reduction” value (10 nM, 48 hours) was 18.7%, the “reduction” value (10 nM, 72 hours) was 104% and the “% Control without cisplatin” value (10 nM, 48 hours) was 75%. For the same compound, the “number of cell bodies per field, Average” value (10 nM, 48 hours) was 45 and 45.50, the “% Control without cisplatin” value (10 nM, 72 hours) was 1.2% and the “number of cell bodies per field, Average” value (10 nM, 72 hours) was 55 and 54.58. The “reduction” value (100 nM, 48 hours) was 43.8%, the “reduction” value (100 nM, 72 hours) was 93% and the “% Control without cisplatin” value (100 nM, 48 hours) was 82%. The “number of cell bodies per field, Average” value (100 nM, 48 hours) was 50 and 49.58, the “% Control without cisplatin” value (100 nM, 72 hours) was 97% and the “number of cell bodies per field, Average” value (100 nM, 72 hours) was 52 and 52.25.
